Test results from the Kinase Knowledgebase extract (Sharma et al. 2016).

Molecular target: MAPK14 (UniProt Q16539)
Experiment: Inhibition of MAPK14 Kinase Activity

MAPK14, sequence (Q16539 whole entry, looked up): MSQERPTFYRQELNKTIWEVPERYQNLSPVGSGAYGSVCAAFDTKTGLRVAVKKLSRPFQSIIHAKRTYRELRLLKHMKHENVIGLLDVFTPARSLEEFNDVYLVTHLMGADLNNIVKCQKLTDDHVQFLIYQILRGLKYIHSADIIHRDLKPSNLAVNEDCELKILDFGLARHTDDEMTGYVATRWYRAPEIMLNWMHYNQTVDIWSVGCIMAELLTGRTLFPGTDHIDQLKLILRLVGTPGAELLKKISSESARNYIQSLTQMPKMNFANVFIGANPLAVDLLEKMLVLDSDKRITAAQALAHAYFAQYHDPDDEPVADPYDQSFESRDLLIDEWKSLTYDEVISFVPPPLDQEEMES

IC50	SMILES
< 20 µM	Fc1ccc(-c2nn3c(c2-c2ccnc4ccccc24)CCC3)cc1
< 20 µM	CSc1ccc2nccc(-c3c(-c4ccccn4)nn4c3CCC4)c2c1
< 20 µM	COc1ccc2c(-c3c(-c4ccccn4)nn4c3CCC4)ccnc2c1
< 20 µM	Cc1cccc(-c2nn3c(c2-c2ccnc4ccc(-c5ccc(F)cc5)cc24)CCC3)n1
< 20 µM	OCCCSc1ccc2c(-c3c(-c4ccccn4)nn4c3CCC4)ccnc2c1
< 20 µM	CN1CCN(CCCOc2ccc3c(-c4c(-c5ccccn5)nn5c4CCC5)ccnc3c2)CC1
< 20 µM	c1ccc(-c2nn3c(c2-c2ccc4ccccc4c2)CCC3)nc1
< 20 µM	Cc1cccc(-c2nn3c(c2-c2ccc(F)cc2)CC[C@@H]3CC#N)n1
< 20 µM	c1ccc(-c2nn3c(c2-c2ccnc4cc(OCCCn5ccnc5)ccc24)CCC3)nc1
< 20 µM	Cc1cccc(-c2nn3c(c2-c2ccc4c(c2)OCO4)CCC3)n1
< 20 µM	CNC(=O)c1ccc2c(-c3c(-c4ccccn4)nn4c3CCC4)ccnc2c1
< 20 µM	CN(C)CC(=O)Nc1ccc2c(-c3c(-c4ccccn4)nn4c3CCC4)ccnc2c1
< 20 µM	O=C(NCCc1c[nH]cn1)c1ccc2c(-c3c(-c4ccccn4)nn4c3CCC4)ccnc2c1
< 20 µM	COC(=O)c1ccc2c(-c3c(-c4ccccn4)nn4c3CCC4)ccnc2c1
< 20 µM	Cc1cccc(-c2nn3c(c2-c2ccnc4ccc(C(=O)O)cc24)CCC3)n1
< 20 µM	Cc1cccc(-c2nn3c(c2-c2ccnc4cc(N)ccc24)CCC3)n1
